The record followed here is patent US9532970B2, “Compositions for anti-inflammatory, antioxidant effects and improved respiratory function by specific histone deacetylase inhibition” (priority 2014, dated 2017).

Assay [1] has as its target T1, HDAC-6 (Homo sapiens, UniProt Q9UBN7).
T1 sequence (Q9UBN7 1-1215): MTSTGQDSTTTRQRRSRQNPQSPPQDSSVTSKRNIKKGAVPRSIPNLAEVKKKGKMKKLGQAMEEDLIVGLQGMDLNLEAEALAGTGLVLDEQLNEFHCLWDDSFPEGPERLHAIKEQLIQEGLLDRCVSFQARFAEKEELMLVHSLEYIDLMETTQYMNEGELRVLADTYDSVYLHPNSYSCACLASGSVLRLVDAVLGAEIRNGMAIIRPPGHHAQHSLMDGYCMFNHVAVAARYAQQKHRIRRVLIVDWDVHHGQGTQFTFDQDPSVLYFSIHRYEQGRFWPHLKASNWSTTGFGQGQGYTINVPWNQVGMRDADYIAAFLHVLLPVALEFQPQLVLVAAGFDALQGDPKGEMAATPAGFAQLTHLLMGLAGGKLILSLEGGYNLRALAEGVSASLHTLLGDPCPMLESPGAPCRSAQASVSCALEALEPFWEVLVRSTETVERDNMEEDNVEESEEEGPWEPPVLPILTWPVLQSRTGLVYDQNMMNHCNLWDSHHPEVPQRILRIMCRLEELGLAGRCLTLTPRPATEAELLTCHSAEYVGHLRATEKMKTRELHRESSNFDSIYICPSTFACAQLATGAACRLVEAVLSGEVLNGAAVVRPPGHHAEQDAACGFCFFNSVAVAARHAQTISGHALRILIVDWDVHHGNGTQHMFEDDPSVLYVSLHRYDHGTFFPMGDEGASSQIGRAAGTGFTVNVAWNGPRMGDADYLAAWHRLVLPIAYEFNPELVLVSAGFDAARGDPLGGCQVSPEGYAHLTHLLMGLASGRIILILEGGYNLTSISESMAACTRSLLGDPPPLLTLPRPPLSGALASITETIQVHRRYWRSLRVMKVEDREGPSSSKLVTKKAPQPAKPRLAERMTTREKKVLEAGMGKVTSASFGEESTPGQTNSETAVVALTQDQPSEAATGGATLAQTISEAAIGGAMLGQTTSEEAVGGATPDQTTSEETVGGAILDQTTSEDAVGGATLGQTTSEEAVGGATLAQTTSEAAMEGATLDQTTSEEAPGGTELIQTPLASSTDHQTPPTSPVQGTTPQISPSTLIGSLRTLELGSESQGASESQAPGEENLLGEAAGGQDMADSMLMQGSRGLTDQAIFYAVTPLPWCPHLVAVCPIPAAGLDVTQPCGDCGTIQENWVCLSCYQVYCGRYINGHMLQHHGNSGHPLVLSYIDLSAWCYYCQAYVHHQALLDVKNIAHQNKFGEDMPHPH

In another assay the target is HDAC8 (Homo sapiens, UniProt Q9BY41).
Sequence of HDAC8 (Q9BY41 whole entry, species assumed): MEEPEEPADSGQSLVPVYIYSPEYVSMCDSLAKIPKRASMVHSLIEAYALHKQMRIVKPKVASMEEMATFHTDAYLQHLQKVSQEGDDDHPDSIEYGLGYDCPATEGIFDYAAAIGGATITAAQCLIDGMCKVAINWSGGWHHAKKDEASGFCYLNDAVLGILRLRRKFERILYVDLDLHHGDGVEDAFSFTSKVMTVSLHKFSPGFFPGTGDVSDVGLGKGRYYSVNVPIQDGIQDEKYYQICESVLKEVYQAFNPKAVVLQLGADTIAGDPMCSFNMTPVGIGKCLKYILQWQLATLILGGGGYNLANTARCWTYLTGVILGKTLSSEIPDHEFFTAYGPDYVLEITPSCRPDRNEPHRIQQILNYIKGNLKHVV
In assay [2] the test system is naphthalene-induced airway epithelial damage. The following applies: 5 mg/kg ip.
The next assay has as its system H9c2 cells. Conditions: pre-treated with 10, 15 and 30 μM for 24 hours prior to 1 μM doxorubicin.
The target of assay [3] is T1, HDAC-6. As to the kind of experiment: biochemical.
Where [4] appears, read: more subtle than Trichostatin A.

pIC50: −log10 of the molar value.

In the case of `C[S@@+]([O-])CCCCN=C=S` [LSF, (R)-1-Isothiocyanato-4-(methylsulfinyl)butane], the HILLSLOPE on HDAC-6 [1] (HDAC-6) and at HDAC8 (HDAC-8) was −0.88 in each case. In addition, the “binding to HDAC 6 (in words)” value at HDAC-6 [1] (setting [4]) is listed as “specific binding”. The “binding to HDAC8 relative to the other HDACs” value at HDAC8 (FIG. 1) is on record as “most pronounced”. Also, on HDAC8 (setting [4]), the “binding to HDAC 8 (in words)” value is given as “specific binding”. Also, in assay [2] (24 hours post-naphthalene, level analogous to dexamethasone 1 mg/kg), the epithelial denudation result was “reduces”. Besides, the lamina reticularis thickness entry in assay [2] (72 hours post-naphthalene, efficacy similar to dexamethasone) is listed as “reduces”. Besides, the “doxorubicin-induced accumulation of γH2AX foci” value with H9c2 cells is given as “attenuates”. At HDAC-6 [3], this compound gave a pIC50 of 2.99.

Broadly, the pIC50 is −log10 of the IC50, conventionally taken in molar units.
